One experiment deals with T1, hMincle-Ig (Homo sapiens, UniProt Q9ULY5).
T1 construct: using soluble Mincle-Ig fusion-proteins; made in house
T1 sequence (Q9ULY5 41-219 limits assumed): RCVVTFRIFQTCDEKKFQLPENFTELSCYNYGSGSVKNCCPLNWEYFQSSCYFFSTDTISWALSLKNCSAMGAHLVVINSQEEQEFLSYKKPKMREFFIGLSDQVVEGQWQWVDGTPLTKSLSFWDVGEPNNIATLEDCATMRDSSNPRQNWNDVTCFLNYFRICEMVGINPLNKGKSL
Description: In vitro Mincle binding assay (ELISA) with hMincle-Ig fusion protein. Particulars: plate-coated ligand 0.1 nmol/well. The procedure: (§1) Preparation of ligand-coated plates: Brartemicin analogues 9a-9i, TDM (Carbosynth, Sigma Aldrich), and TDB^14 were dissolved in CHCl3:MeOH (2:1, 1 mM), diluted in isopropanol ([…]) and added to 96-well plates (20 μL/well). The solvents were evaporated and the coated plates were used immediately.
(§2) In vitro Mincle binding assay: The preparation of mMincle- and hMincle-Ig fusion proteins have been previously described. Plate-coated glycolipids 9a-i, TDB, and TDM were incubated with hMincle-Ig, mMincle-Ig, or hIgG1-Fc (Ig) [3 μg/mL in binding buffer (20 mM Tris-HCl, 150 mM NaCl, 1 mM CaCl2), 2 mM MgCl2, pH 7.0)]. Detection of bound protein was achieved via incubation with anti-hIgG-HRP followed by the addition of a colorimetric substrate and measurement of OD at 450 nm. Background was accounted for by subtracting the hIgG1-Fc OD450 values from fusion protein OD450 values
(§3) The synthesised brartemicin analogues prepared in Example 1 were first tested for their ability to bind to both human and murine Mincle in an enzyme-linked immunosorbent assay (ELISA) using soluble Mincle-Ig fusion-proteins (FIG. 1a).

In another experiment the target is T2, hMincle+FcRγ (Homo sapiens, UniProt Q9ULY5).
T2 construct: expressed in transfected cells; host or cells: 2B4-NFAT-GFP reporter cells
T2 sequence (Q9ULY5 1-219): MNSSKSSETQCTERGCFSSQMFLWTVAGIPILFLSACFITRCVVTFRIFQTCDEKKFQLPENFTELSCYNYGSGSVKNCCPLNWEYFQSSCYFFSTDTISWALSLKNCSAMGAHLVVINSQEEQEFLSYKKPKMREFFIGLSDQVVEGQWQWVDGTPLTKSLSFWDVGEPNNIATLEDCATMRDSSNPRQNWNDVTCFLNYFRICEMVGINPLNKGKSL
The experiment is described as follows: 2B4-NFAT-GFP reporter cells expressing hMincle+FcRγ. The format is cell-based. Particulars: ligand-coated plates 0.01, 0.1 or 1 nmol/well, 18 hours. The procedure: as §1
(§4) 2B4-NFAT-GFP reporter cells: 2B4-NFAT-GFP reporter cells expressing mMincle+FcRγ, hMincle+FcRγ, or FcRγ only have been previously described. […] The reporter cells were harvested, stained with propidium iodide, and analysed for NFAT-GFP expression using flow cytometry (FACS Calibur).
(§5) To determine whether the Mincle binding observed in Example 1 correlated with cellular activation, nuclear factor of activated T cells (NFAT)-green fluorescent protein (GFP) reporter cells expressing mMincle or hMincle coupled to FcRγ were stimulated using plates coated with TDM, TDB, brartemicin (9i), or analogues 9a-9h.
(§6) Activation of the reporter cells was measured through the production of GFP, which was monitored by flow cytometry (FIGS. 1b and 3c).
(§7) With the compounds 43a-h in hand, the ability of these analogues to bind and signal through Mincle was assessed (FIG. 5). Accordingly, NFAT-GFP reporter cells expressing mMincle+FcRγ, hMincle+FcRγ, or FcRγ-only were stimulated with the 2G-brartemicin analogues 43a-h, TDB, iPrOH, or the p-OC18H37 substituted analogue, 9f. Reporter cell activation was measured by the production of NFAT-GFP, which was analysed by flow cytometry.

The target in another experiment is T3, mMincle-Ig (Mus musculus, UniProt Q9R0Q8).
T3 construct: using soluble Mincle-Ig fusion-proteins; made in house
T3 sequence (Q9R0Q8 46-214 limits assumed): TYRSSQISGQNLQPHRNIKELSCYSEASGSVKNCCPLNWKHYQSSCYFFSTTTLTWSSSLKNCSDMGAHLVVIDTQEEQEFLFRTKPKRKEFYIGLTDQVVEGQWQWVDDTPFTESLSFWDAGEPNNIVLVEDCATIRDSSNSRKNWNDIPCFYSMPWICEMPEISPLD
Description: In vitro Mincle binding assay (ELISA) with mMincle-Ig fusion protein. The arrangement: species or system murine. The following applies: plate-coated ligand 0.1 nmol/well. The procedure: as §1, §2, §3
Background: In an ELISA, binding on a coated surface is turned into a signal by an enzyme label.

Another experiment relates to wild-type GM-CSF BMDMs. Description: Cytokine/chemokine production by wild-type GM-CSF BMDMs on ligand-coated plates. The format is cell-based, C57BL/6 mice. Particulars: for IL-1β production / IL-6 production / MIP-2 production / TNF production: wild-type BMDMs, coated plates 0.1 or 1 nmol/well, 24 hours, ELISA. The procedure:
as §1
Murine bone-marrow derived macrophages: For the preparation of murine bone-marrow derived macrophages, bone marrow cells were collected from the tibias and femurs of C57BL/6 mice and cultured (250,000 cells/mL) in complete RPMI media [RPMI-1640 (Gibco) with 10% heat inactivated fetal bovine serum (Gibco), 100 unit/mL penicillin-streptomycin (Gibco) and 2 mM Glutamax (Gibco)] supplemented with 50 ng/mL GM-CSF (clone X63/GM-CSF murine cells). Cells were incubated at 37° C. (5% CO2) for 8 days (cells fed by replacing half the media on days 3 and 6). On day 8, all media was removed and the cells were washed with Dulbecco's Phosphate-Buffered Saline (DPBS, Gibco) to remove any loosely-adherent cells. The BMDMs were harvested with StemPro Acutase (1 mL/well, 15 minutes at room temperature, Gibco) and seeded onto a pre-coated 96-well plate. The supernatant was collected and analysed for cytokine/chemokine production after 24 hours.
Cytokine analysis: IL-1β, IFN-γ, IL-6, TNF-α (BD Biosciences), IL-17, and MIP-2 (R&D) levels were determined via sandwich ELISA according to the manufacturer's instructions.
First, the ability of the compounds to activate GM-CSF BMDMs was determined by monitoring the secretion of the inflammatory cytokines TNF, IL-6, and IL-1β and the chemokine, MIP-2, in a ligand-coated plate assay (FIG. 2).
To gain insight into the capacity of the 2G-series of brartemicin analogues to induce an inflammatory immune response, the analogues were then screened for their ability to activate WT and Mincle^−/− BMDMs, with cellular activation being determined by the measurement of IL-1B using ELISA (FIG. 6).

The next experiment has as its target T4, mMincle+FcRγ (Mus musculus, UniProt Q9R0Q8).
T4 construct: expressed in transfected cells; host or cells: 2B4-NFAT-GFP reporter cells
T4 sequence (Q9R0Q8 1-214): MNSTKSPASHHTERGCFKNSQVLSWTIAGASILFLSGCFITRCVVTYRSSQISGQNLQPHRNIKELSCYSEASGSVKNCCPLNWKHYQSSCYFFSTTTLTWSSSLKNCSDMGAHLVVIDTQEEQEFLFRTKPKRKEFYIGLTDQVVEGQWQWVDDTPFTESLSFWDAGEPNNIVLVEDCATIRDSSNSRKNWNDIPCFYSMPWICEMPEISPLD
T4 sequence (P20491 19-86 partner): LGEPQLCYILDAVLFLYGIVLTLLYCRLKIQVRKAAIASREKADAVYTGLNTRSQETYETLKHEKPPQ
Description: 2B4-NFAT-GFP reporter cells expressing mMincle+FcRγ. The format is cell-based, murine. The following applies: ligand-coated plates 0.01, 0.1 or 1 nmol/well, 18 hours. The procedure:
as §1, §4, §5, §6, §7

The text below walks through data of US11510980B2, “Brartemicin analogues” (VICTORIA LINK LTD, priority 2017, dated 2022).

As to `CCCCCCCOc1cc(C)c(C(=O)OCC2O[C@H](O[C@H]3OC(COC(=O)c4c(C)cc(OCCCCCCC)cc4O)[C@@H](O)C(O)C3O)C(O)C(O)[C@@H]2O)c(O)c1` (stereo partly drawn) [9h, 6,6′-Di-O-(4-heptyloxy-2-hydroxy-6-methylbenzoyl)-α,α′-D-trehalose], the “binding to hMincle-Ig (ELISA, OD at 450 nm)” value (“binding to hMincle-Ig” for short) at hMincle-Ig is given as “good binding”. Also, the “activation of hMincle NFAT-GFP reporter cells (GFP by flow cytometry)” value at hMincle+FcRγ is recorded as “strongly activated”. Further, the “binding to mMincle-Ig (ELISA, OD at 450 nm)” value (shortened to “binding to mMincle-Ig”) at mMincle-Ig is recorded as “good binding”. In the experiment on wild-type GM-CSF BMDMs, the IL-1β production entry is recorded as “significant production”, the IL-6 production entry was “significant production”, the MIP-2 production result is “significant production” and the TNF production entry is recorded as “significant production”. Further, the “activation of mMincle NFAT-GFP reporter cells (GFP by flow cytometry)” value on mMincle+FcRγ is listed as “strongly activated”.

For the molecule `Cc1cc(O)cc(O)c1C(=O)OC[C@H]1O[C@H](O[C@H]2O[C@H](COC(=O)c3c(C)cc(O)cc3O)[C@@H](O)[C@H](O)[C@H]2O)[C@H](O)[C@@H](O)[C@@H]1O` [9i, Brartemicin], the “binding to hMincle-Ig” value at hMincle-Ig is on record as “did not bind hMincle- or mMincle-Ig to any great extent”. Further, the “activation of hMincle NFAT-GFP reporter cells (GFP by flow cytometry)” value on hMincle+FcRγ was “not to activate”. For the same molecule, at mMincle-Ig, the “binding to mMincle-Ig” value is on record as “did not bind hMincle- or mMincle-Ig to any great extent”. Also, in the experiment on wild-type GM-CSF BMDMs, the “activation of BMDMs” value is “not to activate”, the IL-1β production entry is reported as “did not induce the production of any of the cytokines measured”, the IL-6 production result was “did not induce the production of any of the cytokines measured” and the MIP-2 production result is recorded as “did not induce the production of any of the cytokines measured”. In addition, the TNF production entry in the experiment on wild-type GM-CSF BMDMs is given as “did not induce the production of any of the cytokines measured”. In addition, the “activation of mMincle NFAT-GFP reporter cells (GFP by flow cytometry)” value on mMincle+FcRγ is listed as “did not significantly activate mMincle”. Moreover, the “activation of mMincle NFAT-GFP reporter cells (GFP by flow cytometry)” value on mMincle+FcRγ (listed as Brartemicin) was “not to activate”.

As to `CCCCCCCOc1ccc(C(=O)OCC2O[C@H](O[C@H]3OC(COC(=O)c4ccc(OCCCCCCC)cc4O)[C@@H](O)C(O)C3O)C(O)C(O)[C@@H]2O)c(O)c1` (stereo partly drawn) [9b, 6,6′-Di-O-(4-heptyloxy-2-hydroxybenzoyl)-α,α′-D-trehalose], the “binding to hMincle-Ig” value on hMincle-Ig is listed as “good binding”. Further, on hMincle+FcRγ, the “activation of hMincle NFAT-GFP reporter cells (GFP by flow cytometry)” value is “activated mMincle and hMincle NFATGFP reporter cells but to a lesser extent than the C18 analogues”. Moreover, at mMincle-Ig, the “binding to mMincle-Ig” value is “good binding”. Also, in the experiment with wild-type GM-CSF BMDMs, the IL-1β production entry is “modest production”, the IL-6 production result is recorded as “modest production”, the MIP-2 production result is given as “modest production” and the TNF production result is reported as “modest production”. Also, the “activation of mMincle NFAT-GFP reporter cells (GFP by flow cytometry)” value on mMincle+FcRγ is “activated mMincle and hMincle NFATGFP reporter cells but to a lesser extent than the C18 analogues”.

As for `CCCCOc1ccc(C(=O)OCC2O[C@H](O[C@H]3OC(COC(=O)c4ccc(OCCCC)cc4O)[C@@H](O)C(O)C3O)C(O)C(O)[C@@H]2O)c(O)c1` (stereo partly drawn) [9c, 6,6′-Di-O-(2-hydroxy-4-butoxybenzoyl)-α,α′-D-trehalose], the “binding to hMincle-Ig” value on hMincle-Ig was “did not bind hMincle- or mMincle-Ig to any great extent”. Also, at hMincle+FcRγ, the “activation of hMincle NFAT-GFP reporter cells (GFP by flow cytometry)” value was “able to activate mMincle and hMincle only at high ligand concentrations”. In addition, on mMincle-Ig, the “binding to mMincle-Ig” value is “did not bind hMincle- or mMincle-Ig to any great extent”. The MIP-2 production entry with wild-type GM-CSF BMDMs is “induced MIP-2”. The “activation of mMincle NFAT-GFP reporter cells (GFP by flow cytometry)” value on mMincle+FcRγ is “able to activate mMincle and hMincle only at high ligand concentrations”.
